Values quoted from earlier work, collected in US8580861B2, “Chemical composition for skin care formulations” (Pibed Limited, priority 2008, dated 2013).
Read-outs that look alike come from different tables or passages of the source.

Experiments:
[1] = test system: Microsporum gypseum; settings: M. gypseum
[2] = test system: Escherichia coli
[3] = test system: Lactobacillus fermentum; settings: flow cytometry
[4] = test system: Microsporum gypseum; settings: 10% in Vaseline petroleum jelly, topical, daily for 3 weeks; for histopathologic examination of skin tissues: versus positive control
[5] = test system: Staphylococcus aureus; settings: low concentrations (0.5 to 2 mM), disk diffusion

SMILES	MIC ([1]; positive control) [µg/mL]	MIC [1]	sensitization to polymyxin B [2]	intracellular accumulation of ethidium bromide by live cells [3]	hair culture test [4]	skin lesion scoring [4]	histopathologic examination of skin tissues [4]	susceptibility to ciprofloxacin, clindamycin, erythromycin, gentamicin, tetracycline, and vancomycin [5]
CC(C)=CCCC(C)=CCCC(C)=CCO [farnesol]	–	–	sensitized Escherichia coli to polymyxin B	promoted the intracellular accumulation	–	–	–	–
CC(C)=CCC[C@](C)(O)C1CC=C(C)CC1 (some centres unmarked) [bisabolol]	–	–	–	promoted the intracellular accumulation	–	–	–	enhanced the susceptibility of Staphylococcus aureus
CC(C)=CCC/C(C)=C/CC1CCCC1=O (centres unmarked) [apritone]	–	–	–	promoted the intracellular accumulation	–	–	–	enhanced the susceptibility of Staphylococcus aureus

The next lines start with results.

MIC ([1]; positive control) [µg/mL]	MIC [1]	SMILES	sensitization to polymyxin B [2]	intracellular accumulation of ethidium bromide by live cells [3]	hair culture test [4]	skin lesion scoring [4]	histopathologic examination of skin tissues [4]	susceptibility to ciprofloxacin, clindamycin, erythromycin, gentamicin, tetracycline, and vancomycin [5]
4 to 16	–	Clc1ccc(COC(Cn2ccnc2)c2ccc(Cl)cc2Cl)cc1 (centres unmarked) [econazole]	–	–	–	–	–	–
–	0.5-2%	C=CC(C)(O)CCC=C(C)CCC=C(C)C (centres unmarked) [nerolidol, 3,7,11-trimethyl1,6,10-dodecatrien-3-ol]	sensitized Escherichia coli to polymyxin B	promoted the intracellular accumulation	improved the skin lesions infected by M. gypseum	clinically effective at improving the lesion during the first week of application	lower degree of hyperkeratosis and inflammatory cell infiltration than the positive control	enhanced the susceptibility of Staphylococcus aureus
–	0.01-0.03%	C=CCc1ccc(O)c(OC)c1 [eugenol]	–	–	–	clinically effective at improving the lesion during the first week of application	lower degree of hyperkeratosis and inflammatory cell infiltration than the positive control	–
